Source: US6737383B1, “Herbicidal oxadiazolidines” (priority 1999, dated 2004)

What was measured:
[1] = test system: bedstraw; experiment: Test B pre/postemergence bedstraw; assay type: in vivo, Galium aparine
In short: (§1)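 Herbicidal effect was estimated by eye on a ten-point control scale after plants spent twelve to sixteen days in a greenhouse following soil or foliar treatment. Foliar sprays targeted plants at one to four leaves; all doses were formulated in a non-phytotoxic solvent with surfactant.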

[2] = test system: blackgrass; experiment: Test B pre/postemergence blackgrass; assay type: in vivo, Alopecurus myosuroides
In short: as §1

[3] = test system: surinam grass; experiment: Test B pre/postemergence surinam grass; assay type: in vivo, Brachiaria decumbens
In short: as §1

[4] = test system: cocklebur; experiment: Test B pre/postemergence cocklebur; assay type: in vivo, Xanthium strumarium
In short: as §1

[5] = test system: corn; experiment: Test B pre/postemergence corn; assay type: in vivo, Zea mays
In short: as §1

[6] = test system: crabgrass; experiment: Test B pre/postemergence crabgrass; assay type: in vivo, Digitaria sanguinalis
In short: as §1

[7] = test system: giant foxtail; experiment: Test B pre/postemergence giant foxtail; assay type: in vivo, Setaria faberii
In short: as §1

[8] = test system: morningglory; experiment: Test B pre/postemergence morningglory; assay type: in vivo, Ipomoea hederacea
In short: as §1

[9] = test system: velvetleaf; experiment: Test B pre/postemergence velvetleaf; assay type: in vivo, Abutilon theophrasti
In short: as §1

[10] = test system: wheat; experiment: Test B pre/postemergence wheat; assay type: in vivo, Triticum aestivum
In short: as §1

[11] = test system: wild oat; experiment: Test B pre/postemergence wild oat; assay type: in vivo, Avena fatua
In short: as §1

[12] = test system: purple nutsedge; experiment: Test B pre/postemergence purple nutsedge; assay type: in vivo, Cyperus rotundus
In short: as §1

[13] = test system: smallflower flatsedge; experiment: Test B flood test smallflower flatsedge; assay type: in vivo, Cyperus difformis
In short: (§2)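 Plants were grown to the 2-leaf stage before treatment with test chemical, then held in a greenhouse for twelve to sixteen days. Injury was visually rated against untreated controls on a 0–10 scale, where 0 is no effect and 10 is complete control.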

[14] = test system: duck salad; experiment: Test B flood test duck salad; assay type: in vivo, Heteranthera limosa
In short: as §2

[15] = test system: bamyardgrass; experiment: Test B flood test barnyardgrass; assay type: in vivo, Echinochloa crus-galli
In short: as §2

[16] = Postemergence, Rate 62 g/ha, scale 0 to 10, 0 is no effect, 10 is complete control
[17] = Postemergence, Rate 125 g/ha, scale of 0 to 10 where 0 is no effect and 10 is complete control
[18] = Postemergence, Rate 250 g/ha, scale of 0 to 10, 0 is no effect, 10 is complete control
[19] = Preemergence, Rate 125 g/ha, scale of 0 to 10 where 0 is no effect and 10 is complete control
[20] = Preemergence, Rate 250 g/ha, scale 0 to 10 (0 no effect, 10 complete control)
[21] = Preemergence, Rate 500 g/ha, scale of 0 to 10 where 0 is no effect and 10 is complete control
[22] = Postemergence, Rate 500 g/ha, scale of 0 to 10 where 0 is no effect and 10 is complete control
[23] = Preemergence, Rate 62 g/ha, scale of 0 to 10 where 0 is no effect and 10 is complete control
[24] = Rate 62 g/ha, flood test species, Pre-emergence, visual evaluation after twelve to sixteen days
[25] = Rate 125 g/ha, under heading Pre-emergence, flood test species, visual evaluation after twelve to sixteen days
[26] = Rate 250 g/ha, Pre-emergence (flood test species), scale 0 to 10, 0 is no effect, 10 is complete control
[27] = Rate 500 g/ha, Pre-emergence section of Table B, 0 to 10 scale (0 no effect, 10 complete control)

CCCCCn1c(=O)on(C(=O)N(c2ccc(F)cc2F)C(C)C)c1=O [Compound 636]
3: Blackgrass plant response rating [2, 18] | Plant response rating, B. signalgrass [3, 22] | B. signalgrass plant response rating [3, 23] | Plant response rating, Cocklebur [4, 17] | Cocklebur plant response rating [4, 18] | Plant response rating, Cocklebur [4, 22] | Plant response rating, Corn [5, 21] | Plant response rating, Crabgrass [6, 16] | Plant response rating, Velvetleaf [9, 16] | Plant response rating, Velvetleaf [9, 17] | Velvetleaf plant response rating [9, 18]
6: Morningglory plant response rating [8, 18] | Plant response rating, Morningglory [8, 22]
5: Bedstraw plant response rating [1, 19] | Plant response rating, Blackgrass [2, 22] | Plant response rating, Wild oats [11, 21]
4: Blackgrass plant response rating [2, 19] | Plant response rating, Blackgrass [2, 20] | Plant response rating, Velvetleaf [9, 21]
9: Bedstraw plant response rating [1, 18] | Plant response rating, Bedstraw [1, 20] | Plant response rating, Bedstraw [1, 21] | B. signalgrass plant response rating [3, 19] | Plant response rating, B. signalgrass [3, 21] | Plant response rating, Crabgrass [6, 17] | Crabgrass plant response rating [6, 18] | Plant response rating, Crabgrass [6, 22] | Crabgrass plant response rating [6, 19] | Giant foxtail plant response rating [7, 18] | Plant response rating, Giant foxtail [7, 22] | Giant foxtail plant response rating [7, 23]
10: Plant response rating, Crabgrass [6, 20] | Plant response rating, Crabgrass [6, 21] | Giant foxtail plant response rating [7, 19] | Plant response rating, Giant foxtail [7, 20] | Plant response rating, Giant foxtail [7, 21] | Plant response rating, Nutsedge [12, 21]
7: Plant response rating, Bedstraw [1, 16] | Plant response rating, Bedstraw [1, 17] | Plant response rating, Blackgrass [2, 21] | Plant response rating, Giant foxtail [7, 17]
8: Plant response rating, B. signalgrass [3, 20] | Crabgrass plant response rating [6, 23]
0: Plant response rating, Blackgrass [2, 16] | Plant response rating, Blackgrass [2, 17] | Plant response rating, B. signalgrass [3, 16] | Plant response rating, B. signalgrass [3, 17] | B. signalgrass plant response rating [3, 18] | Plant response rating, Cocklebur [4, 16] | Cocklebur plant response rating [4, 23] | Cocklebur plant response rating [4, 19] | Plant response rating, Cocklebur [4, 20] | Plant response rating, Cocklebur [4, 21] | Corn plant response rating [5, 19] | Plant response rating, Corn [5, 20] | Morningglory plant response rating [8, 23] | Morningglory plant response rating [8, 19] | Plant response rating, Morningglory [8, 20] | Velvetleaf plant response rating [9, 23] | Velvetleaf plant response rating [9, 19] | Plant response rating, Wheat [10, 16] | Plant response rating, Wheat [10, 17] | Wheat plant response rating [10, 18] | Wheat plant response rating [10, 23] | Wheat plant response rating [10, 19] | Plant response rating, Wheat [10, 20] | Plant response rating, Wild oats [11, 16] | Plant response rating, Wild oats [11, 17] | Wild oats plant response rating [11, 18] | Wild oats plant response rating [11, 23] | Wild oats plant response rating [11, 19] | Plant response rating, Wild oats [11, 20] | Plant response rating, Nutsedge [12, 16] | Plant response rating, Nutsedge [12, 17] | Nutsedge plant response rating [12, 18] | Plant response rating, Nutsedge [12, 22] | Nutsedge plant response rating [12, 23] | Nutsedge plant response rating [12, 19] | Plant response rating, Nutsedge [12, 20] | Plant response rating, S. Flatsedge (0 to 10 scale, 0 is no effect, 10 is complete control) [13, 24] | S. Flatsedge plant response rating (0 to 10 scale, 0 is no effect, 10 is complete control) [13, 25] | S. Flatsedge plant response rating [13, 26] | S. Flatsedge plant response rating [13, 27] | Plant response rating, Ducksalad (0 to 10 scale, 0 is no effect, 10 is complete control) [14, 24] | Ducksalad plant response rating (0 to 10 scale, 0 is no effect, 10 is complete control) [14, 25] | Ducksalad plant response rating [14, 26] | Ducksalad plant response rating [14, 27] | Plant response rating, Barnyardgrass (0 to 10 scale, 0 is no effect, 10 is complete control) [15, 24] | Barnyardgrass plant response rating (0 to 10 scale, 0 is no effect, 10 is complete control) [15, 25] | Barnyardgrass plant response rating [15, 26]
2: Blackgrass plant response rating [2, 23] | Plant response rating, Corn [5, 16] | Plant response rating, Corn [5, 17] | Corn plant response rating [5, 18] | Plant response rating, Corn [5, 22] | Plant response rating, Giant foxtail [7, 16] | Plant response rating, Morningglory [8, 16] | Plant response rating, Morningglory [8, 17] | Plant response rating, Morningglory [8, 21] | Plant response rating, Velvetleaf [9, 20] | Plant response rating, Wheat [10, 21] | Barnyardgrass plant response rating [15, 27]
